A short description of series [1]: Pharmacokinetic parameters and characteristics of mirdametinib (Table A). It is filed as in vivo, human. Conditions: for Tmax [median (range)]: post dose. The method, then:
(§1) Study treatment was administered orally at a twice daily (BID) dose specified in the table below. Dosing was on a 28-day Cycle (4-week course) with a 3 week on/1 week off schedule. The treatment period will last for up to 24 Cycles followed by a 30-day Safety Follow-Up period.

Series [2] relates to NF1-associated plexiform neurofibromas (PN). Put plainly: Phase 2b trial in adult and pediatric patients with NF1-associated inoperable plexiform neurofibromas; response by BICR volumetric MRI per REiNS criteria. It counts as in vivo, human. To be noted: for DoR ≥12 months: Kaplan-Meier based approach, data cut-off September 2023. On the procedure: Participants were screened (assessed for eligibility as described below). […] The median age was 34.5 years (range 18 to 69 years); 85% were white and 64% were female. […] The most commonly reported morbidities were pain (90%) and disfigurement or major deformity (52%).
The median age was 10 years (range 2 to 17 years); 66% were white and 54% were female. […] The most commonly reported morbidities were pain (70%) and disfigurement or major deformity (50%).
as §1
A partial response was defined as PN decrease≥20% compared to baseline using centrally read MRI volumetric analysis.
The major efficacy outcome measure was confirmed objective response rate (ORR), defined as the percentage of patients with complete response (disappearance of the target PN) or confirmed partial response (≥20% reduction in PN volume confirmed at a subsequent tumor assessment within 2-6 months during the 24-cycle treatment phase). Responses were assessed by blinded independent central review (BICR) using volumetric magnetic resonance imaging (MRI) analysis per Response Evaluation in Neurofibromatosis and Schwannomatosis (REINS) criteria. A secondary efficacy objective was to determine the duration of response for patients who achieved a confirmed objective response.

The mark [3] stands for this setting: Pediatric patients (2 to <18 years).

Consider `O=C(NOC[C@H](O)CO)c1ccc(F)c(F)c1Nc1ccc(I)cc1F` (single isomer, unassigned) [mirdametinib], for which the “Steady-state exposure AUClast [geometric mean (geometric % CV)]” value is recorded as “Adult patients (≥18 years): 431 (43%) ng · h/mL” in series [1] (Adult patients (≥18 years)) and “Pediatric patients (2 to <18 years): 459 (46%) ng · h/mL” in series [1] (setting [3]). Also, the “Steady-state exposure Cmax [geometric mean (geometric % CV)]” value in series [1] (Adult patients (≥18 years)) is on record as “Adult patients (≥18 years): 188 (52%) ng/mL”; in series [1] (setting [3]), “Pediatric patients (2 to <18 years): 191 (62%) ng/mL”. In addition, the “Tmax [median (range)]” value in series [1] (Capsule) is given as “Capsule: 1.08 (0.00-4.17) hours post dose”; in series [1] (Tablet) it was “Tablet: 0.83 (0.42-3.02) hours post dose”. The “DoR ≥12 months” value in series [2] (Adult responders) is 18 (75%) n (%); in series [2] (Pediatric responders), 22 (76%) n (%). The “Median time to onset of response” value in series [2] (adult cohort, range 4.0 to 19.0 months) came out at 7.8 months; in series [2] (pediatric cohort, range 4.1 to 18.8 months), 7.9 months.
